Results: ChEMBL document CHEMBL5226361, “Marine Sponge-Derived Alkaloid Induces Mitochondrial Dysfunction and Inhibits the PI3K/AKT/mTOR Signaling Pathway against Burkitt's Lymphoma” (J Nat Prod, 2023)
Activity calls are given as the source filed them. The rule behind the calls is not given here.

Experiments:
Daudi [1] = assay: Induction of apoptosis in human Daudi cells assessed as total apoptotic cells at 3 uM incubated for 24 hrs by Annexin-V/PI staining based flow cytometric analysis relative to control; type: functional
Raji [2] = assay: Induction of apoptosis in human Raji cells assessed as upregulation of cleaved caspase-3 expression at 1.25 to 5 uM incubated for 24 hrs by Western blot analysis; type: functional, cell-based; details: dose 1.25-5 µM
Daudi [3] = assay: Induction of apoptosis in human Daudi cells assessed as effect on cleaved caspase-8 protein expression at 0.75 to 3 uM incubated for 24 hrs by Western blot analysis; type: functional, cell-based; details: dose 0.75-3 µM
Daudi [4] = assay: Induction of apoptosis in human Daudi cells assessed as upregulation of cleaved PARP expression at 0.75 to 3 uM incubated for 24 hrs by Western blot analysis; type: functional, cell-based; details: dose 0.75-3 µM
Raji [5] = assay: Induction of cell cycle arrest at G0/G1 phase in human Raji cells assessed as downregulation of CDK4 protein expression at 1.25 to 5 uM incubated for 24 to 48 hrs by Western blot analysis; type: functional, cell-based; details: dose 1.25-5 µM, time 24-48 hrs
Daudi [6] = assay: Induction of mitochondrial dysfunction in human Daudi cells assessed as decrease in ATP content incubated for 24 hrs by CellTiter-Lumi […] assay; type: functional, cell-based; details: dose 0.75-3 µM
Raji [7] = assay: Induction of mitochondrial respiratory chain damage in human Raji cells assessed as decrease in SDHA protein expression at 2.5 to 5 uM incubated for 48 hrs by Western blot analysis; type: functional, cell-based; details: dose 2.5-5 µM
Raji [8] = assay: Induction of mitochondrial oxidative damage in human Raji cells assessed as increase in intracellular mitochondrial superoxide generation at 5 uM incubated for 1 to 6 hrs by MitoSOX red dye based flow cytometric analysis; type: functional, cell-based; details: time 1-6 hrs
Daudi [9] = assay: Effect on total mTOR protein level in human Daudi cells at 0.75 to 3 uM incubated for 24 hrs by Western blot analysis; type: functional, cell-based; details: dose 0.75-3 µM
Daudi [10] = assay: Effect on total PI3K protein level in human Daudi cells at 0.75 to 3 uM incubated for 24 hrs by Western blot analysis; type: functional, cell-based; details: dose 0.75-3 µM
Raji [11] = assay: Induction of cell cycle arrest in human Raji cells assessed as S phase cells at 5 uM incubated for 48 hrs by PI staining based flow cytometry analysis (reference value: 69.78%); type: functional
Daudi [12] = assay: Effect on total AKT protein level in human Daudi cells at 0.75 to 3 uM incubated for 24 hrs by Western blot analysis; type: functional, cell-based; details: dose 0.75-3 µM
Raji [13] = assay: Induction of apoptosis in human Raji cells assessed as early apoptotic cells at 5 uM incubated for 24 hrs by Annexin V-FITC/PI staining based flow cytometric analysis (reference value: 0.8%); type: functional
Daudi [14] = assay: Induction of apoptosis in human Daudi cells assessed as effect on Bax protein expression at 0.75 to 3 uM incubated for 24 hrs by Western blot analysis; type: functional, cell-based; details: dose 0.75-3 µM
Daudi [15] = assay: Induction of apoptosis in human Daudi cells assessed as viable cells at 3 uM incubated for 24 hrs by Annexin V-FITC/PI staining based flow cytometric analysis (reference value: 97.2%); type: functional; details: read-out: Activity
Daudi [16] = assay: Downregulation of c-Myc expression level in human Daudi cells incubated for 24 hrs by Western blot analysis; type: functional, cell-based; details: dose 0.75-3 µM
Daudi [17] = assay: Induction of cell cycle arrest at G0/G1 phase in human Daudi cells assessed as downregulation of CDK4 protein expression at 0.75 to 3 uM incubated for 24 to 48 hrs by Western blot analysis; type: functional, cell-based; details: dose 0.75-3 µM, time 24-48 hrs
Raji [18] = assay: Induction of apoptosis in human Raji cells assessed as viable cells at 5 uM incubated for 24 hrs in the presence of YS49 by Annexin V-FITC/PI staining based flow cytometric analysis (reference value: 97.8%); type: functional; details: read-out: Activity
Daudi [19] = assay: Induction of apoptosis in human Daudi cells assessed as upregulation of cleaved caspase-9 expression at 0.75 to 3 uM incubated for 24 hrs by Western blot analysis; type: functional, cell-based; details: dose 0.75-3 µM
Raji [20] = assay: Induction of mitochondrial respiratory chain damage in human Raji cells assessed as decrease in CYC1 protein expression at 2.5 to 5 uM incubated for 48 hrs by Western blot analysis; type: functional, cell-based; details: dose 2.5-5 µM
Daudi [21] = assay: Induction of apoptosis in human Daudi cells assessed as early apoptotic cells at 3 uM incubated for 24 hrs by Annexin V-FITC/PI staining based flow cytometric analysis (reference value: 1.7%); type: functional
Raji [22] = assay: Induction of apoptosis in human Raji cells assessed as upregulation of cytochrome C expression at 1.25 to 5 uM incubated for 24 hrs by Western blot analysis; type: functional, cell-based; details: dose 1.25-5 µM
Daudi [23] = assay: Induction of mitochondrial respiratory chain damage in human Daudi cells assessed as decrease in NDUFV2 protein expression at 1.5 to 3 uM incubated for 48 hrs by Western blot analysis; type: functional, cell-based; details: dose 1.5-3 µM
Raji [24] = assay: Induction of cell cycle arrest in human Raji cells assessed as accumulation of cells at G0/G1 phase at 5 uM incubated for 48 hrs by PI staining based flow cytometry analysis (reference value: 20.16%); type: functional
Raji [25] = assay: Induction of apoptosis in human Raji cells assessed as late apoptotic cells at 5 uM incubated for 24 hrs in the presence of YS49 by Annexin V-FITC/PI staining based flow cytometric analysis (reference value: 0.0%); type: functional
Raji [26] = assay: Induction of cell cycle arrest in human Raji cells assessed as G2 phase cells at 5 uM incubated for 48 hrs by PI staining based flow cytometry analysis (reference value: 10.06%); type: functional
Daudi [27] = assay: Induction of apoptosis in human Daudi cells assessed as late apoptotic cells at 3 uM incubated for 24 hrs by Annexin V-FITC/PI staining based flow cytometric analysis (reference value: 0.0%); type: functional
Raji [28] = assay: Antiproliferative activity against human Raji cells assessed as inhibition of cell growth incubated for 48 hrs by CCK-8 assay; type: functional, cell-based
Daudi [29] = assay: Induction of apoptosis in human Daudi cells assessed as early apoptotic cells at 3 uM incubated for 24 hrs in the presence of YS49 by Annexin V-FITC/PI staining based flow cytometric analysis (reference value: 1.7%); type: functional
Daudi [30] = assay: Induction of apoptosis in human Daudi cells assessed as nuclear fragmentation incubated for 24 hrs by Hoechst 33258/PI staining based fluorescence microscopic analysis; type: functional, cell-based; details: dose 0.75-3 µM
Raji [31] = assay: Induction of apoptosis in human Raji cells assessed as downregulation of Mcl-1 expression at 1.25 to 5 uM incubated for 24 hrs by Western blot analysis; type: functional, cell-based; details: dose 1.25-5 µM
Daudi [32] = assay: Induction of cell cycle arrest at G0/G1 phase in human Daudi cells assessed as upregulation of gamma-H2AX protein expression at 0.75 to 3 uM incubated for 24 to 48 hrs by Western blot analysis; type: functional, cell-based; details: dose 0.75-3 µM, time 24-48 hrs
Daudi [33] = assay: Induction of apoptosis in human Daudi cells assessed as late apoptotic cells at 3 uM incubated for 24 hrs in the presence of YS49 by Annexin V-FITC/PI staining based flow cytometric analysis (reference value: 0.0%); type: functional
Raji [34] = assay: Induction of apoptosis in human Raji cells assessed as viable cells at 5 uM incubated for 24 hrs by Annexin V-FITC/PI staining based flow cytometric analysis (reference value: 97.8%); type: functional; details: read-out: Activity
Raji [35] = assay: Effect on total mTOR protein level in human Raji cells at 1.25 to 5 uM incubated for 24 hrs by Western blot analysis; type: functional, cell-based; details: dose 1.25-5 µM
Daudi [36] = assay: Induction of mitochondrial dysfunction in human Daudi cells assessed as decrease in ATP-5H protein expression at 1.5 to 3 uM incubated for 48 hrs by Western blot analysis; type: functional, cell-based; details: dose 1.5-3 µM

In the case of `COc1c(OC)c2c3c(nccc3c1-c1cc(C)cc(C)c1)C(c1cc(C)cc(C)c1)=CN2`, the Activity (Daudi [1]) is reported as 21.6%, the Activity (Raji [2]) is reported as “Active” and the Activity (Daudi [3]) is reported as “inactive”. The Activity (Daudi [4]) was “Active”, the Activity (Raji [5]) was “Active” and the Activity (Daudi [6]) was “Dose-Dependent Effect”. The Activity (Raji [7]) was “Active”, the Activity (Raji [8]) was “Active” and the Activity (Daudi [9]) was “inactive”. For the same molecule, the Activity (Daudi [10]) was “inactive”, the Activity (Raji [11]) was 49.74% and the Activity (Daudi [12]) was “inactive”. For the same molecule, the Activity (Raji [13]) was 21.7%, the Activity (Daudi [14]) was “inactive” and the viability at 3 µM (Daudi [15]) was 72.7%. For the same molecule, the Activity (Daudi [16]) was “Dose-Dependent Effect”, the Activity (Daudi [17]) was “Active” and the viability at 5 µM (Raji [18]) was 67%. The Activity (Daudi [19]) was “Active”, the Activity (Raji [20]) was “Active” and the Activity (Daudi [21]) was 18.6%. For the same molecule, the Activity (Raji [22]) was “Active”, the Activity (Daudi [23]) was “Active” and the Activity (Raji [24]) was 40.65%. It also gave an Activity (Raji [25]) of 0.9%, an Activity (Raji [26]) of 9.61% and an Activity (Daudi [27]) of 5.4%. The IC50 (Raji [28]) was 2.07 µM, the Activity (Daudi [29]) was 16.7% and the Activity (Daudi [30]) was “Dose-Dependent Effect”. The Activity (Raji [31]) was “Active”, the Activity (Daudi [32]) was “Active” and the Activity (Daudi [33]) was 1.5%. The viability at 5 µM (Raji [34]) was 56.2%, the Activity (Raji [35]) was “inactive” and the Activity (Daudi [36]) was “Active”.
